This note sets out measurements from patent US20210380548A1, “Fused [1,2,4]Thiadiazine Derivatives Which Act as KAT Inhibitors of the MYST Family” (CTxT Pty Limited, priority 2017, published 2021).

The structures appear in SMILES notation.

Assay [1] has as its target T1, MOZ-KAT6A (Homo sapiens, UniProt Q92794, A567V).
T1 construct: encoding amino acid residues 507 to 778 (Uniprot Q92794-1) of human KAT6A; made in house; host or cells: E. coli BL21 DE3
The experiment in a line: Revised Acetyltransferase Biochemical Assay, KAT6A. Particulars: Table 8 (MOZ-KAT6A), 1 μM Acetyl coenzyme A.

Assay [2] concerns histone H2A.Z Lysine 7 acetylation (TIP60 mediated) in U2OS cells. The experiment in a line: H2A.Z Lysine 7 Acetylation Biomarker Assay (96 well, U2OS). The format is cell-based. Particulars: Homo sapiens, Table 7, H2A.Z K7ac, 24 hours incubation, serum free medium. On the procedure: To discover a global TIP60/KAT5 cellular biomarker useful for monitoring PD responses of TIP60 inhibition in vitro and in vivo, various histone modifications were assessed for TIP60 dependence through genetic (TIP60 siRNA and CRISPR/Cas9) or TIP60 pharmacological inhibition. This analysis clearly identified acetylation of the histone variant H2A.Z at Lysine 7 (H2A.ZK7ac) as a global histone mark which is TIP60-dependent in both human and mouse cells. To a lesser extent, TIP60 also acetylated lysine 4 and 11 of H2A.Z.
Compounds may be tested for their ability to inhibit the histone H2A.Z Lysine 7 acetylation biomarker (which is TIP60 mediated) in the following assay:
(§1) The cell line U2OS was seeded at a density of 9,000 cells per well in 96 well optical quality tissue culture plates in RPMI medium and 10% foetal bovine serum, and allowed to adhere for 24 hours under standard culture conditions (37 degree Celsius, 5% CO2). At the end of this period the cells were washed with serum free medium. Compound dilutions prepared in DMSO were added to the serum free medium, with negative control wells reserved for treatment with DMSO only and positive controls receiving a potent inhibitor compound (e.g. Example 146) at 20 μM concentration. After incubation for 24 hours, the cells were fixed with 3.7% formaldehyde in PBS for 20 minutes at room temperature, washed with phosphate buffer saline containing 0.1% Tween 20 and blocked with Odyssey blocking buffer (LI-COR, Lincoln, Nebr.) containing 0.1% TritonX100. Anti-H2A.Z K7ac specific antibody (Abcam) in Odyssey blocking buffer containing 0.1% Tween 20 was added and incubated for 14 hours at 4 degree Celsius. After washing, a secondary antibody labelled with Alexa647 dye (LifeTechnologies) and Hoechst 33342 (10 μM, SigmaAldrich) were added for 1 hour incubation. Plates were washed and read on a PerkinElmer Phenix high content imaging platform. Using a Columbus image analysis pipeline, individual nuclei were located by Hoechst 33342 stain and the acetylation level was calculated from the Alexa647-related intensity in the same area. The resulting mean intensity per cell was directly converted to percent inhibition relative to controls on the same plate and the data fitted against a four-parameter logistic model to determine the 50% inhibitory concentration (IC50).

Assay [3] has as its target T2, QKF-KAT6B (Homo sapiens, UniProt Q8WYB5).
T2 construct: purchased SignalChem K315-381BG
The experiment in a line: Revised Acetyltransferase Biochemical Assay, KAT6B. The following applies: 8 nM KAT6B, 1 μM AcCoA, 100 nM histone H3.1, 90 min. An excerpt:
KAT6B was obtained from SignalChem, catalog ID: K315-381BG

Assay [4] has as its target T3, MOF-KAT8 (Homo sapiens, UniProt Q9H7Z6).
T3 sequence (Q9H7Z6 177-447): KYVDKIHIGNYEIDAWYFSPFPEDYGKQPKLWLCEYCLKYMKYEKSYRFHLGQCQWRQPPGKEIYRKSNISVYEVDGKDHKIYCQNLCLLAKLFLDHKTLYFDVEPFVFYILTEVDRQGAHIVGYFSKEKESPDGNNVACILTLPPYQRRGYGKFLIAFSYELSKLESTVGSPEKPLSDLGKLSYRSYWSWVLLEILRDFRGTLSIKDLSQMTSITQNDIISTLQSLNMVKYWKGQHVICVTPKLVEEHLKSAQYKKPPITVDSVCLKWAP
The assay is described as follows: Acetyltransferase biochemical assay (AlphaScreen), KAT8. Particulars: Table 4 (MOF-KAT8); 0.4 μM Acetyl coenzyme A, histone H4, 20 nM enzyme. In general terms: Bead proximity is the source of the signal in Alpha formats.

Assay [5] has as its target T4, HBO-KAT7 (Homo sapiens, UniProt O95251).
T4 construct: encoding amino acid residues 325 to 611 (Uniprot 095251-1) of human KAT7; made in house; host or cells: E. coli BL21 DE3 RIL
The assay is described as follows: Revised Acetyltransferase Biochemical Assay, KAT7. Particulars: Table 9 (HBO-KAT7), 1 μM Acetyl coenzyme A.

The test system of assay [6] is histone H3K14 acetylation (HBO1 mediated) in U2OS cells. The assay is described as follows: Histone H3 Lysine 14 Acetylation Biomarker Assay (96 well, U2OS). The following applies: Homo sapiens, 24 h, Table 6, H3K14ac, 24 hours incubation, serum free medium. The format is cell-based. On the procedure:
Compounds may be tested for their ability to inhibit acetylation of the histone H3K14 marker (which is HBO1 mediated) in the following assay:
as §1, with “of 12,000” for “of 9,000”, “Example 36 in WO2016/198507)” for “Example 146)”, “at 10” for “at 20”, “TritonX100. Anti-H3K14ac” for “TritonX100. Anti-H2A.Z K7ac”, “antibody (Cell Signalling Technologies)” for “antibody (Abcam)”, “33342 (1 μg/mL,” for “33342 (10 μM,”

Assay [7] concerns the target T5, TIP60-KAT5 (Homo sapiens, UniProt Q92993).
T5 construct: encoding amino acid residues 2 to 461 (Uniprot Q92993-2) of human KAT5 isoform; made in house; host or cells: E. coli BL21 DE3
The assay is described as follows: Revised Acetyltransferase Biochemical Assay, KAT5. The following applies: 10 nM KAT5, 1 μM AcCoA, 100 nM histone H4, 90 min.

T2 sequence (Q8WYB5 whole entry): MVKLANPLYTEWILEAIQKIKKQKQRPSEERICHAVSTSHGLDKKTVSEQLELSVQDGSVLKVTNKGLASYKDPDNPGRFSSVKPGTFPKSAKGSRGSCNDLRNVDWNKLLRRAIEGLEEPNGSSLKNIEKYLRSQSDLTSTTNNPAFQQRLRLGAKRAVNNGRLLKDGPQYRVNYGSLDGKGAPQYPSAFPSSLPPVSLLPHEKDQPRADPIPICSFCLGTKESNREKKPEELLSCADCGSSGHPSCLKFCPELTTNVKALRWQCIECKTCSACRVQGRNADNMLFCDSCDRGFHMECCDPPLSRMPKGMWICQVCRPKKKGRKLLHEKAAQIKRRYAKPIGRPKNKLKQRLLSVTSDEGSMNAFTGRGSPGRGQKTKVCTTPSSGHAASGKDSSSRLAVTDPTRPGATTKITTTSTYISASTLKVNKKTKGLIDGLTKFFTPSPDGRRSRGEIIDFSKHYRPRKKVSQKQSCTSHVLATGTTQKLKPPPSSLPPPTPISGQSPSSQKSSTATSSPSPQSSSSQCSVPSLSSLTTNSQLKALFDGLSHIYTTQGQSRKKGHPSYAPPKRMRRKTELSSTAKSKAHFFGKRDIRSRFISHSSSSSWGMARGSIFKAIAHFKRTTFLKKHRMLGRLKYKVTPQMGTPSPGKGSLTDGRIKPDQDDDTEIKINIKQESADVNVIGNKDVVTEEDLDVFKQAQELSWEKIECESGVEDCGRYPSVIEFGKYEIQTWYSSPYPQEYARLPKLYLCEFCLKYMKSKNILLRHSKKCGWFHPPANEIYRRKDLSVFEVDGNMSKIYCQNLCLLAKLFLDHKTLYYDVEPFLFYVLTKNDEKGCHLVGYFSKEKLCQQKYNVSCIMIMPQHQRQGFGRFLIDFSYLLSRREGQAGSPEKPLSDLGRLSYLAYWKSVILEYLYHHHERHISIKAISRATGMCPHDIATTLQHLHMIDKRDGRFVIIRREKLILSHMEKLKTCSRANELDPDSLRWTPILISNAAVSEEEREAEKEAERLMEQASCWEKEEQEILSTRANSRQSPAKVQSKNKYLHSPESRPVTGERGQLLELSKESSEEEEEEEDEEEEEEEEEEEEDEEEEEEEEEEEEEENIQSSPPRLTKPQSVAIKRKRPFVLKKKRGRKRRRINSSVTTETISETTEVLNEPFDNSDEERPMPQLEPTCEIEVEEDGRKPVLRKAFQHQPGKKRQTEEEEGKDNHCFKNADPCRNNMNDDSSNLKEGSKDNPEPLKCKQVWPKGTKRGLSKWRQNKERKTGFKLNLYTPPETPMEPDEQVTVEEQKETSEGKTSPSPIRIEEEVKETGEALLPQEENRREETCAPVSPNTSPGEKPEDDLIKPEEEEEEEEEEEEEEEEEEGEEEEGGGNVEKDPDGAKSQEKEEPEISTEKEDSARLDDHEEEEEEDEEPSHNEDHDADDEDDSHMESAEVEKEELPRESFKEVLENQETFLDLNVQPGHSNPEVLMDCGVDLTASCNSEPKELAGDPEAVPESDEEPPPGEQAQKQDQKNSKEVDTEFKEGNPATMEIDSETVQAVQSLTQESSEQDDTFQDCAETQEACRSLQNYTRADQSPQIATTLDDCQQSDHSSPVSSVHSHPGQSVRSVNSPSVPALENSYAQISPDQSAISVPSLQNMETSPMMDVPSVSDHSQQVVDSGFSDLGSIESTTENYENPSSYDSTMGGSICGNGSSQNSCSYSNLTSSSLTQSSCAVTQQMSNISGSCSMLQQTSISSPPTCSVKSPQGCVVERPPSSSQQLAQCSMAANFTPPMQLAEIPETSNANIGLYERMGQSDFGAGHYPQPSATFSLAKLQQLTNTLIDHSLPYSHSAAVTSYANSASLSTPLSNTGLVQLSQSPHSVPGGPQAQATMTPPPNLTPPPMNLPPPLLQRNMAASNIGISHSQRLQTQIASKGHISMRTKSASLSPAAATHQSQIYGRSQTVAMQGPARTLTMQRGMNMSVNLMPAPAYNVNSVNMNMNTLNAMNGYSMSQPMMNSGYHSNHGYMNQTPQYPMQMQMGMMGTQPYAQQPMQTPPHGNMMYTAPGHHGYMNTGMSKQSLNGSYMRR
T1 sequence (Q92794 507-778 A567V limits assumed): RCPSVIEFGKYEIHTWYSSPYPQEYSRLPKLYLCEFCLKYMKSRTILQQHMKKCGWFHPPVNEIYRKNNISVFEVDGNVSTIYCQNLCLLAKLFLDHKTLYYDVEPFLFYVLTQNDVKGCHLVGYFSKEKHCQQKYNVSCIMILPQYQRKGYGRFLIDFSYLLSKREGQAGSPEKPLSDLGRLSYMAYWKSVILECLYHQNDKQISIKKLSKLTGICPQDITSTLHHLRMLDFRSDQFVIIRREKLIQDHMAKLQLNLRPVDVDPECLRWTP
T4 sequence (O95251 with tags, fused parts or gaps): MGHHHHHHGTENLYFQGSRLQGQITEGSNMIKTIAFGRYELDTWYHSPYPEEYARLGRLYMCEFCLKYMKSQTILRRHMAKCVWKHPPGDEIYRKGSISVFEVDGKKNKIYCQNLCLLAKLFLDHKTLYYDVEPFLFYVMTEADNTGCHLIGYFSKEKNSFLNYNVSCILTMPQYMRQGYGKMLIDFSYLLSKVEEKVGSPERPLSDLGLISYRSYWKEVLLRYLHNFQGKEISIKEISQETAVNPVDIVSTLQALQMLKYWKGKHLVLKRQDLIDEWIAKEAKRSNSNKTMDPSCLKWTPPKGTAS
T5 sequence (Q92993 2-461 isoform Q92993-2): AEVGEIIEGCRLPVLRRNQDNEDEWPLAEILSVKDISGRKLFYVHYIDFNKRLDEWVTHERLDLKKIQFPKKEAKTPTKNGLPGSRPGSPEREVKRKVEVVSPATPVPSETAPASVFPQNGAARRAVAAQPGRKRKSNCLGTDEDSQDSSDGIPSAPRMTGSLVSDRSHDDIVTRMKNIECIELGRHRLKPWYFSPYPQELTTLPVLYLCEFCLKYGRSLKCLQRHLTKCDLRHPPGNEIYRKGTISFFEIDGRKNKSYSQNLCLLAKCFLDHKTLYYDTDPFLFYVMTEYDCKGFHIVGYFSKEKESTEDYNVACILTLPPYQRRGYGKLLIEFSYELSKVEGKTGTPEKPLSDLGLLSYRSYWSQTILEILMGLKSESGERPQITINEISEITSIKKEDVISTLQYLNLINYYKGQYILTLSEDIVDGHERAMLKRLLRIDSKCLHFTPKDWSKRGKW

Regarding `O=C(NCC(c1ccccc1)c1ncco1)C1=Nc2ccc(Br)cc2S(=O)(=O)N1` (stereo not drawn) [Example 1, 7-Bromo-N-(2-(oxazol-2-yl)-2-phenylethyl)-2H-benzo[e][1,2,4]thiadiazine-3-carboxamide 1,1-dioxide], the concentration for half-maximal inhibition (IC50) in assay [1] came to 5 nM; in assay [2], 2180 nM; in assay [3] it was 60 nM; in assay [4], 14600 nM; in assay [5], 76 nM; in assay [6], 317 nM. In assay [7], this compound displayed an IC50 of 68 nM.
Regarding `O=C(NCC(c1ccccc1)c1ncco1)C1=Nc2ccccc2S(=O)(=O)N1` (stereo not drawn) [Example 46, N-(2-(oxazol-2-yl)-2-phenylethyl)-2H-benzo[e][1,2,4]thiadiazine-3-carboxamide 1,1-dioxide], the 50% inhibitory concentration (IC50) in assay [1] amounted to 64 nM; in assay [2] it was 30000 nM; in assay [3], 589 nM; in assay [4], 88200 nM; in assay [5] it was 1080 nM; in assay [6], 8160 nM. In assay [7], this compound gave a 50% inhibitory concentration (IC50) of 4050 nM.
`O=C(NCCc1ccccc1-n1nccn1)C1=Nc2ccc(I)cc2S(=O)(=O)N1` [Example 60, N-(2-(2H-1,2,3-triazol-2-yl)phenethyl)-7-iodo-2H-benzo[e][1,2,4]thiadiazine-3-carboxamide 1,1-dioxide]: the IC50 in assay [1] came out at 10 nM; in assay [2], 2060 nM; in assay [3] it was 39 nM; in assay [5], 201 nM; in assay [6], 1610 nM; in assay [7], 58 nM.
With `O=C(NCCc1ccccc1OC(F)F)C1=Nc2ccc(I)cc2S(=O)(=O)N1` [Example 91], the IC50 turned out to be 24 nM in assay [1]; 10000 nM in assay [2]; 350 nM in assay [3]; 12100 nM in assay [4]; 74 nM in assay [5]; 615 nM in assay [6]. Moreover, the IC50 in assay [7] amounted to 90 nM.

In general, IC50 refers to the concentration at which inhibition is half-maximal. A high value points to a need for much substance.
